“And” between values parts separate entries of the source, which are not always exact repeats. Identical values can stand only once. Like-named read-outs stand apart in the source and are kept apart here. Bounds are passed on as bounds.

This is an account of results in publication PMC4792735 (Clinical pharmacokinetics, 2016).

Data set [1] addresses T1, human MATE2K (Homo sapiens, UniProt Q86VL8). Nature of the data set: in vitro. The conditions noted are these: probe [14C]-metformin 10 µM.
Data set [2] concerns the target T1, human MATE2K. The data set can be described thus: cell-based. The conditions noted are these: IC50, [14C]-metformin 10 μM uptake, HEK-MATE2K.
The target in data set [3] is T2, human OCT2 (Homo sapiens, UniProt O15244).
T2 sequence (O15244 1-555): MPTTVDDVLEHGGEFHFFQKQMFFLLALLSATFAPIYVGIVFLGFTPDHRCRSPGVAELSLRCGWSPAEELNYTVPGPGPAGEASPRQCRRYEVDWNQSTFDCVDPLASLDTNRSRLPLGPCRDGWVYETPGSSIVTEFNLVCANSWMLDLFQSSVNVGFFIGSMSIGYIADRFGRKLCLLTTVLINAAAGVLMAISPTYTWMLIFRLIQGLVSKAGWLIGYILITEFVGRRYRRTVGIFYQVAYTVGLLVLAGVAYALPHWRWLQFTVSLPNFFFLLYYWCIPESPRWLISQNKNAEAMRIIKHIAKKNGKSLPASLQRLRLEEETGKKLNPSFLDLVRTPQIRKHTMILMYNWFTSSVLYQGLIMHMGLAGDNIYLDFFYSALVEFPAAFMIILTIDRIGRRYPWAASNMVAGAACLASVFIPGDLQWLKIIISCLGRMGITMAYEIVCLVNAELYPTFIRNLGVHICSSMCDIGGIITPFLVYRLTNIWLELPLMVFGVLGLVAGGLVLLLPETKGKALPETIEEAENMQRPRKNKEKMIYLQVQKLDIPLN
The data set can be described thus: Inhibition of [14C]-metformin uptake in HEK-OCT2 cells. The format is cell-based. The conditions noted are these: for inhibition at 10 x Cmax,u: human, HEK293-Flp-In cells stably expressing human OCT2 (HEK-OCT2), probe [14C]-metformin 10 µM.

Data set [4] concerns the target T3, human OCT1 (Homo sapiens, UniProt O15245).
T3 sequence (O15245 1-554): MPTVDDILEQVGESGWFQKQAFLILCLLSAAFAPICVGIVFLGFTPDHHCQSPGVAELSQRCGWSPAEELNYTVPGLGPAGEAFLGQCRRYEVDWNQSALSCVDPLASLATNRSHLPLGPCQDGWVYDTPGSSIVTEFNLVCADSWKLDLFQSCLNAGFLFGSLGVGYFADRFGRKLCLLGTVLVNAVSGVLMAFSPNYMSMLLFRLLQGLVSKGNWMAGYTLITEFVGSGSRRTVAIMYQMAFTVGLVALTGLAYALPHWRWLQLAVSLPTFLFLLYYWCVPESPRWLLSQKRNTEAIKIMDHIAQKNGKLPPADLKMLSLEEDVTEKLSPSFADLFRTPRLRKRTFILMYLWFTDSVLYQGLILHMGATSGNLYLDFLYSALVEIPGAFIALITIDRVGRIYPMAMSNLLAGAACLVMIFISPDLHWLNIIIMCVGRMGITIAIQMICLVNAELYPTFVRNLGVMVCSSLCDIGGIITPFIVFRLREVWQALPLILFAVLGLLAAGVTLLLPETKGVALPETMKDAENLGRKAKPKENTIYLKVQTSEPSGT
The data set can be described thus: cell-based.

The target in data set [5] is T4, human MATE1 (Homo sapiens, UniProt Q96FL8).
T4 sequence (Q96FL8 1-570): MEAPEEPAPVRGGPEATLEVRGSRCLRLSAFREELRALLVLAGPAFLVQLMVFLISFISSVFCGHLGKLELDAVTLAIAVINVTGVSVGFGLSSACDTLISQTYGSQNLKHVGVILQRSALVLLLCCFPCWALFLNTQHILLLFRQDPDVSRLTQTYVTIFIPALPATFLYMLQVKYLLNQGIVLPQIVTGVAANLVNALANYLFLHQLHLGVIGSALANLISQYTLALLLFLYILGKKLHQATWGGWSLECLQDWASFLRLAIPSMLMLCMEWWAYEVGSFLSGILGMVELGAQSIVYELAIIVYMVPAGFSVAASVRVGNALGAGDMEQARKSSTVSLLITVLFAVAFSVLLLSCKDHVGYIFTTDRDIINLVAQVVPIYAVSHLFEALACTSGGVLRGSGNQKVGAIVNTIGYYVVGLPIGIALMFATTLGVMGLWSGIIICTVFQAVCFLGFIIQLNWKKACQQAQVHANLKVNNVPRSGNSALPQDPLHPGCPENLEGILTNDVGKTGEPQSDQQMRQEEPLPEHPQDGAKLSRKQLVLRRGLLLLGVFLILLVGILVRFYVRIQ
The data set can be described thus: Inhibition of [14C]-metformin uptake in HEK-MATE1 cells. The conditions noted are these: for inhibition at 10 x Cmax,u: human, probe [14C]-metformin 10 µM. The format is cell-based.

The target of data set [6] is T5, human OCT3 (Homo sapiens, UniProt O75751).
T5 sequence (O75751 1-556): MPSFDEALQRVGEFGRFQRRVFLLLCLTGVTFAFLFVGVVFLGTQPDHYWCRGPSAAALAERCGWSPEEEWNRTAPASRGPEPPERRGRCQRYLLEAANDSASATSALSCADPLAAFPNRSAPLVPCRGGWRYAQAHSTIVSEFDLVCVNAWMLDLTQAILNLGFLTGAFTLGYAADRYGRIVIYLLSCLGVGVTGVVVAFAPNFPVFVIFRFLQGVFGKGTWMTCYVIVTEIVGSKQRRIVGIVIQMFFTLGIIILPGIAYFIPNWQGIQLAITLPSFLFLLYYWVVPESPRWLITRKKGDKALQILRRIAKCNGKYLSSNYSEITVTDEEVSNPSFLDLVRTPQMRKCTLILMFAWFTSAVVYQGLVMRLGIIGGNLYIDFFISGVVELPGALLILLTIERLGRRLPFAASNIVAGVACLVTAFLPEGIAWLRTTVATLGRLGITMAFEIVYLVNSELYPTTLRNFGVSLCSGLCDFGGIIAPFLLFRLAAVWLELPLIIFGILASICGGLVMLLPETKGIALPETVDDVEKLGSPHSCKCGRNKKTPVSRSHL
The data set can be described thus: Inhibition of [14C]-metformin uptake in HEK-OCT3 cells. Type of data set: cell-based. The conditions noted are these: for metformin uptake (remaining): OCT3-mediated, inhibitor at 10x Cmax,u.

The target in data set [7] is T6, human PMAT (Homo sapiens, UniProt Q7RTT9).
T6 sequence (Q7RTT9 1-530): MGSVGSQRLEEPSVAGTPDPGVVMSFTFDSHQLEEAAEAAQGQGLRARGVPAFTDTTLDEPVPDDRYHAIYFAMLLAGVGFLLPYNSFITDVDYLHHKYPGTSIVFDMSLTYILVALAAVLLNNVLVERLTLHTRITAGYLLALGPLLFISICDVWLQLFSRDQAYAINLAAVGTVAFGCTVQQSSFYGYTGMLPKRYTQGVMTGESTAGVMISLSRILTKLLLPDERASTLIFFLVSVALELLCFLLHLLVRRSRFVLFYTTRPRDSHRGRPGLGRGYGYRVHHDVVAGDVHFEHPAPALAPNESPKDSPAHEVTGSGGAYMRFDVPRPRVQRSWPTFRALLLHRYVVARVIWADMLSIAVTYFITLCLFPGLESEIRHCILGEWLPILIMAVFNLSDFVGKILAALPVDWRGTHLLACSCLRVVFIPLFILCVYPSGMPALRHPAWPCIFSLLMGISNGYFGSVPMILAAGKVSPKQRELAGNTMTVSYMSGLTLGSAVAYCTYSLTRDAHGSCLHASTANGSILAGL
Nature of the data set: Inhibition of [14C]-metformin uptake in MDCK-PMAT cells. Type of data set: cell-based.

Data set [8] deals with T3, human OCT1. The conditions noted are these: OCT1-mediated, inhibitor at 10x Cmax,u.
For data set [9] the following is noted: human plasma; cited from earlier work.
Data set [10] is classed as in vivo, human.
For data set [11] the following is noted: metformin alone; OGTT 75 g 2 hours after dosing; p>0.1 vs pre-metformin.
The nature of data set [12]: clinical. The note with it: human, po, 850 mg.
For data set [13] the following is noted: metformin 850 mg oral alone.

T1 sequence (Q86VL8 1-566 isoform Q86VL8-3): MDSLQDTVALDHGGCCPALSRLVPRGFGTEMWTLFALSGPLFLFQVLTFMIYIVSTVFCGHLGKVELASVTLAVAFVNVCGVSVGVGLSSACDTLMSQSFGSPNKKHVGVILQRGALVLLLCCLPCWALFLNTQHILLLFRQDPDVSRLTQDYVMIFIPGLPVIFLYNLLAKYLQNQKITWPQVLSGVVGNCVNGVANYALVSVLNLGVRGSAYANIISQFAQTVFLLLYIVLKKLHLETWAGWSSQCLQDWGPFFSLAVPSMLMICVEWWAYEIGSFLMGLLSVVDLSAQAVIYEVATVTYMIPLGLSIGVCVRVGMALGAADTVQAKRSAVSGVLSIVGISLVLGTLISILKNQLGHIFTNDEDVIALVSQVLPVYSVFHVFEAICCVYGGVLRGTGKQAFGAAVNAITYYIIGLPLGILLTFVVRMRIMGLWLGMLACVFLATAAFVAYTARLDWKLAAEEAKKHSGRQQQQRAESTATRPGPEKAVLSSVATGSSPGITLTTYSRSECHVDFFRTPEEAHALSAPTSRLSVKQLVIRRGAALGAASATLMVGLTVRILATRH

Usually inhibition stands for the drop in the measured response relative to a control, in per cent. Read a low inhibition as a weak effect. By IC50 is commonly meant the concentration that gives 50% inhibition. Low readings indicate greater potency, high ones weaker potency. As to `COc1c(N2C[C@@H]3CCCN[C@@H]3C2)c(F)cc2c(=O)c(C(=O)O)cn(C3CC3)c12` [moxifloxacin], the inhibition at 10 x Cmax,u in data set [1] and in data set [5] was not below 50% throughout. The IC50 is 1.19 µM in data set [2]; more than 151 µM in data set [3]; 47 µM in data set [4]; 5.12 µM in data set [5]; more than 151 µM in [6]; more than 151 µM in [7].
With `CN/C(=N/CCSCc1nc[nH]c1C)NC#N` [cimetidine], the inhibition at 10 x Cmax,u in [1] and in [5] was not below 50% each time.
The term half-life denotes the time needed for the level to fall by half in the phase considered. A word on the Cmax: it is the highest concentration seen after dosing. As to `CNC(=C[N+](=O)[O-])NCCSCc1csc(CN(C)C)n1` [nizatidine], the “metformin uptake (remaining)” value in [8] and in data set [6] was more than 50% each time. This compound also gave an inhibition at 10 x Cmax,u in data set [1] not below 50%. Besides, the IC50 in data set [2] is 7.8 µM and 7.81 µM; in data set [3], more than 115 µM; in data set [4], more than 115 µM; in [5], 52.7 µM; in data set [6], 41.1 µM; in data set [7] it was more than 115 µM. Further, the protein binding in data set [9] is reported as 35%. The half-life in data set [10] (human, plasma, oral) was approximately 3 h. Moreover, the Cmax in data set [10] (human, plasma, po, 600 mg) is 4200 ng/mL and 12.7 µM. For the same compound, the “calculated Cmax,u” value in data set [10] (nizatidine 600 mg oral, calculated with 35% protein binding) was 2.7 ± 0.2 μg/mL and 8.2 μM.
Consider `CCN(CC)CCNC(=O)c1ccc(N)cc1` [procainamide], for which the inhibition at 10 x Cmax,u in data set [1] and in [3] was not below 50% in each case.
As for `C=CCN1CC[C@]23c4c5ccc(O)c4O[C@H]2C(=O)CC[C@@]3(O)[C@H]1C5` [naloxone], in data set [3], the inhibition at 10 x Cmax,u was not below 50%.
Regarding `COc1cc(Cc2cnc(N)nc2N)cc(OC)c1OC` [trimethoprim], the inhibition at 10 x Cmax,u in data set [1] and in data set [5] was not below 50% each time.
Consider `Nc1nc(NC2CC2)c2ncn([C@H]3C=C[C@@H](CO)C3)c2n1` [abacavir], for which the inhibition at 10 x Cmax,u in data set [5] was not below 50%.
On the same count and under the same terms, the result for `CC(C)/N=c1\cc2n(-c3ccc(Cl)cc3)c3ccccc3nc-2cc1Nc1ccc(Cl)cc1` [clofazimine] reads not below 50%.
`Cc1nccn1CC1CCc2c(c3ccccc3n2C)C1=O` (stereo not drawn) [ondansetron]: the “metformin uptake (remaining)” value in data set [8] and in data set [6] was more than 50% in each case. For the same compound, the inhibition at 10 x Cmax,u in data set [1] and in [5] was not below 50% throughout. The IC50 in data set [4], in data set [6] and in data set [7] was more than 1.32 µM throughout.
Consider `CC(=O)OCC(CCn1cnc2cnc(N)nc21)COC(C)=O` [famciclovir], for which the inhibition at 10 x Cmax,u in [1] is not below 50%.
As for `CNC(=C[N+](=O)[O-])NCCSCc1ccc(CN(C)C)o1` [ranitidine], the “metformin uptake (remaining)” value in data set [8] and in data set [6] was more than 50% throughout. Also, the inhibition at 10 x Cmax,u in data set [1] and in data set [5] was not below 50% in each case. Moreover, the IC50 is 4.63 µM in [2]; 15.7 µM in data set [3]; 26.8 µM in data set [4]; 93.5 µM in [6]; more than 214 µM in [7].
Take `C=C[C@H]1C[N@@]2CC[C@H]1C[C@H]2[C@H](O)c1ccnc2ccc(OC)cc12` [quinine]: the inhibition at 10 x Cmax,u in data set [1], in [3] and in [5] was not below 50% in each case.
Turning to `CCn1cc(C(=O)O)c(=O)c2cc(F)c(N3CCNCC3)cc21` [norfloxacin], the “metformin uptake (remaining)” value in [8] and in [6] was more than 50% in each case. Besides, the inhibition at 10 x Cmax,u in data set [1] and in [5] was not below 50% each time. In addition, the half-maximal inhibitory concentration (IC50) in data set [2] was 4.74 µM; in data set [3], more than 160 µM; in data set [4] it was more than 160 µM; in data set [5] it was 19.9 µM; in data set [6] it was more than 160 µM; in [7], more than 160 µM.
Broadly, the AUC(0-inf) is total exposure, with the tail of the curve extrapolated. Low values mean low exposure, high ones high exposure. The term AUC(0-t) denotes exposure summed from dosing to a finite time, without extrapolation to infinity. Lower therefore signals less exposure. For orientation: Tmax means the time at which the peak concentration occurs. A word on the CL/F: it is the apparent clearance, not corrected for the fraction that reaches the circulation. On to `CN(C)C(=N)N=C(N)N` [Metformin, metformin], for which the “glucose AUC after OGTT” value in [11] worked out at 3100 ± 121 mg·h/L. The compound also gave a CL renal in [12] (plasma and urine) of 736 ± 204 mL/min. For the same compound, in data set [12] (plasma), the AUC(0-inf) turned out to be 11.4 ± 3.3 µg·h/mL, the AUC(0-t) is 11 ± 3.1 µg·h/mL, the Cmax was determined as 1.81 ± 0.6 µg/mL and the Tmax amounted to 2.46 ± 0.66 h. For the same compound, in data set [13], the CL/F was determined as 1360 ± 440 mL/min and the V/F is 577 ± 179 L. The “Amount in urine0–24” value in [13] (11 subjects) stood at 437 ± 86 mg.
